According to ChEMBL document CHEMBL3611972, “Leishmanicidal, antiproteolytic, and mutagenic evaluation of alkyltriazoles and alkylphosphocholines” (Eur J Med Chem, 2015):

Experiments:
Type in all cases: toxicity, organism-based
Salmonella typhimurium [1] = assay: Mutagenicity in Salmonella typhimurium TA97a assessed as mutagenicity index at 616.38 uM/plate incubated for 90 mins at 37 degC in absence of liver S9 fractions by Ames test relative to control; settings: salmonella enterica subsp. enterica serovar typhimurium, 1.5 h
Salmonella typhimurium [2] = assay: Mutagenicity in Salmonella typhimurium TA98 assessed as mutagenicity index at 313.73 uM/plate incubated for 90 mins at 37 degC in presence of liver S9 fractions by Ames test relative to control; settings: salmonella enterica subsp. enterica serovar typhimurium, s9, 1.5 h
Salmonella typhimurium [3] = assay: Mutagenicity in Salmonella typhimurium TA100 assessed as mutagenicity index at 313.73 uM/plate incubated for 90 mins at 37 degC in presence of liver S9 fractions by Ames test relative to control; settings: salmonella enterica subsp. enterica serovar typhimurium, s9, 1.5 h
Salmonella typhimurium [4] = assay: Mutagenicity in Salmonella typhimurium TA97a assessed as mutagenicity index at 313.73 uM/plate incubated for 90 mins at 37 degC in presence of liver S9 fractions by Ames test relative to control; settings: salmonella enterica subsp. enterica serovar typhimurium, s9, 1.5 h
Salmonella typhimurium [5] = assay: Mutagenicity in Salmonella typhimurium TA102 assessed as mutagenicity index at 313.73 uM/plate incubated for 90 mins at 37 degC in absence of liver S9 fractions by Ames test relative to control; settings: salmonella enterica subsp. enterica serovar typhimurium, 1.5 h
Salmonella typhimurium [6] = assay: Mutagenicity in Salmonella typhimurium TA97a assessed as mutagenicity index at 1454.55 uM/plate incubated for 90 mins at 37 degC in absence of liver S9 fractions by Ames test relative to control; settings: salmonella enterica subsp. enterica serovar typhimurium, 1.5 h
Salmonella typhimurium [7] = assay: Mutagenicity in Salmonella typhimurium TA102 assessed as mutagenicity index at 1454.55 uM/plate incubated for 90 mins at 37 degC in absence of liver S9 fractions by Ames test relative to control; settings: salmonella enterica subsp. enterica serovar typhimurium, 1.5 h
Salmonella typhimurium [8] = assay: Mutagenicity in Salmonella typhimurium TA102 assessed as mutagenicity index at 313.73 uM/plate incubated for 90 mins at 37 degC in presence of liver S9 fractions by Ames test relative to control; settings: salmonella enterica subsp. enterica serovar typhimurium, s9, 1.5 h
Salmonella typhimurium [9] = assay: Mutagenicity in Salmonella typhimurium TA100 assessed as mutagenicity index at 1185.19 uM/plate incubated for 90 mins at 37 degC in presence of liver S9 fractions by Ames test relative to control; settings: salmonella enterica subsp. enterica serovar typhimurium, s9, 1.5 h
Salmonella typhimurium [10] = assay: Mutagenicity in Salmonella typhimurium TA98 assessed as mutagenicity index at 616.38 uM/plate incubated for 90 mins at 37 degC in absence of liver S9 fractions by Ames test relative to control; settings: salmonella enterica subsp. enterica serovar typhimurium, 1.5 h
Salmonella typhimurium [11] = assay: Mutagenicity in Salmonella typhimurium TA100 assessed as mutagenicity index at 616.38 uM/plate incubated for 90 mins at 37 degC in absence of liver S9 fractions by Ames test relative to control; settings: salmonella enterica subsp. enterica serovar typhimurium, 1.5 h
Salmonella typhimurium [12] = assay: Mutagenicity in Salmonella typhimurium TA100 assessed as mutagenicity index at 313.73 uM/plate incubated for 90 mins at 37 degC in absence of liver S9 fractions by Ames test relative to control; settings: salmonella enterica subsp. enterica serovar typhimurium, 1.5 h
Salmonella typhimurium [13] = assay: Mutagenicity in Salmonella typhimurium TA98 assessed as mutagenicity index at 313.73 uM/plate incubated for 90 mins at 37 degC in absence of liver S9 fractions by Ames test relative to control; settings: salmonella enterica subsp. enterica serovar typhimurium, 1.5 h
Salmonella typhimurium [14] = assay: Mutagenicity in Salmonella typhimurium TA97a assessed as mutagenicity index at 150.98 uM/plate incubated for 90 mins at 37 degC in presence of liver S9 fractions by Ames test relative to untreated control; settings: salmonella enterica subsp. enterica serovar typhimurium, s9, 1.5 h
Salmonella typhimurium [15] = assay: Mutagenicity in Salmonella typhimurium TA97a assessed as mutagenicity index at 150.98 uM/plate incubated for 90 mins at 37 degC in absence of liver S9 fractions by Ames test relative to untreated control; settings: salmonella enterica subsp. enterica serovar typhimurium, 1.5 h
Salmonella typhimurium [16] = assay: Mutagenicity in Salmonella typhimurium TA97a assessed as mutagenicity index at 296.15 uM/plate incubated for 90 mins at 37 degC in absence of liver S9 fractions by Ames test relative to untreated control; settings: salmonella enterica subsp. enterica serovar typhimurium, 1.5 h
Salmonella typhimurium [17] = assay: Mutagenicity in Salmonella typhimurium TA100 assessed as mutagenicity index at 296.15 uM/plate incubated for 90 mins at 37 degC in presence of liver S9 fractions by Ames test relative to untreated control; settings: salmonella enterica subsp. enterica serovar typhimurium, s9, 1.5 h
Salmonella typhimurium [18] = assay: Mutagenicity in Salmonella typhimurium TA100 assessed as mutagenicity index at 150.98 uM/plate incubated for 90 mins at 37 degC in presence of liver S9 fractions by Ames test relative to untreated control; settings: salmonella enterica subsp. enterica serovar typhimurium, s9, 1.5 h
Salmonella typhimurium [19] = assay: Mutagenicity in Salmonella typhimurium TA97a assessed as mutagenicity index at 700.00 uM/plate incubated for 90 mins at 37 degC in absence of liver S9 fractions by Ames test relative to untreated control; settings: salmonella enterica subsp. enterica serovar typhimurium, 1.5 h
Salmonella typhimurium [20] = assay: Mutagenicity in Salmonella typhimurium TA98 assessed as mutagenicity index at 570.37 uM/plate incubated for 90 mins at 37 degC in absence of liver S9 fractions by Ames test relative to untreated control; settings: salmonella enterica subsp. enterica serovar typhimurium, 1.5 h
Salmonella typhimurium [21] = assay: Mutagenicity in Salmonella typhimurium TA97a assessed as mutagenicity index at 700.00 uM/plate incubated for 90 mins at 37 degC in presence of liver S9 fractions by Ames test relative to untreated control; settings: salmonella enterica subsp. enterica serovar typhimurium, s9, 1.5 h
Salmonella typhimurium [22] = assay: Mutagenicity in Salmonella typhimurium TA100 assessed as mutagenicity index at 700.00 uM/plate incubated for 90 mins at 37 degC in absence of liver S9 fractions by Ames test relative to untreated control; settings: salmonella enterica subsp. enterica serovar typhimurium, 1.5 h
Salmonella typhimurium [23] = assay: Mutagenicity in Salmonella typhimurium TA98 assessed as mutagenicity index at 700.00 uM/plate incubated for 90 mins at 37 degC in presence of liver S9 fractions by Ames test relative to untreated control; settings: salmonella enterica subsp. enterica serovar typhimurium, s9, 1.5 h
Salmonella typhimurium [24] = assay: Mutagenicity in Salmonella typhimurium TA100 assessed as mutagenicity index at 570.37 uM/plate incubated for 90 mins at 37 degC in presence of liver S9 fractions by Ames test relative to untreated control; settings: salmonella enterica subsp. enterica serovar typhimurium, s9, 1.5 h
Salmonella typhimurium [25] = assay: Mutagenicity in Salmonella typhimurium TA98 assessed as mutagenicity index at 150.98 uM/plate incubated for 90 mins at 37 degC in absence of liver S9 fractions by Ames test relative to untreated control; settings: salmonella enterica subsp. enterica serovar typhimurium, 1.5 h
Salmonella typhimurium [26] = assay: Mutagenicity in Salmonella typhimurium TA102 assessed as mutagenicity index at 296.15 uM/plate incubated for 90 mins at 37 degC in presence of liver S9 fractions by Ames test relative to untreated control; settings: salmonella enterica subsp. enterica serovar typhimurium, s9, 1.5 h

## CCOC(=O)c1cn(CCCCCCCCCOS(C)(=O)=O)nn1
Salmonella typhimurium [1]
  Activity_index: 1.6
Salmonella typhimurium [2]
  Activity_index: 1
Salmonella typhimurium [3]
  Activity_index: 0.9
Salmonella typhimurium [4]
  Activity_index: 0.8
Salmonella typhimurium [5]
  Activity_index: 1.2
Salmonella typhimurium [6]
  Activity_index: 1.4
Salmonella typhimurium [7]
  Activity_index: 1.1
Salmonella typhimurium [8]
  Activity_index: 1.4
Salmonella typhimurium [9]
  Activity_index: 0.9
Salmonella typhimurium [10]
  Activity_index: 1.2
Salmonella typhimurium [11]
  Activity_index: 1.3
Salmonella typhimurium [12]
  Activity_index: 1.2
Salmonella typhimurium [13]
  Activity_index: 1.5

## CS(=O)(=O)OCCCCCCCCCCCCn1cc(CCCO)nn1
Salmonella typhimurium [14]
  Activity_index: 0.9
Salmonella typhimurium [15]
  Activity_index: 1.3
Salmonella typhimurium [16]
  Activity_index: 1.1
Salmonella typhimurium [17]
  Activity_index: 0.9
Salmonella typhimurium [18]
  Activity_index: 0.9
Salmonella typhimurium [19]
  Activity_index: 1.1
Salmonella typhimurium [20]
  Activity_index: 1.3
Salmonella typhimurium [21]
  Activity_index: 0.8
Salmonella typhimurium [22]
  Activity_index: 1
Salmonella typhimurium [23]
  Activity_index: 1.2
Salmonella typhimurium [24]
  Activity_index: 0.8
Salmonella typhimurium [25]
  Activity_index: 1
Salmonella typhimurium [26]
  Activity_index: 1.3
